This is an account of results in publication PMC11597202, “Novel Thiazole-Fused [4,5-g] or [5,4-g]Quinazolin-8-ones and Their Quinazoline Analogues: Synthesis and Biological Evaluation” (Pharmaceuticals, 2024).

One series concerns seven tumor cell lines. Nature of the series: In vitro cytotoxic assay, whole panel of cancer cell lines. The format is cell-based, human. Particulars: Homo sapiens; lowest to highest IC50 among the seven cancer cell lines, 48 h; read-out: IC50 span over the cancer cell lines. As for the experimental part:
(§1) Skin normal fibroblastic cells were purchased from Lonza (Basel, Switzerland). […] All culture media were supplemented by 10% of FBS, 1% of penicillin–streptomycin and 2 mM glutamine.
(§2) Chemicals were solubilized in DMSO at a concentration of 10 mM (stock solution) and diluted in culture medium to the desired final concentrations. […] Cells were plated in 96-well plates (4000 cells/well). Twenty-four hours after seeding, the cells were exposed to chemicals. […] Image acquisition and analysis were performed using a Cellomics ArrayScan VTI/HCS Reader (ThermoScientific, Les Ulis, France). The survival percentages were calculated as the percentage of cell number after compound treatment over cell number after DMSO treatment. The relative IC50 values were calculated using the curve fitting XLfit 5.5.0.5 (idbs) integrated in Microsoft Excel as an add-on.
(§3) 4.3.1. Cell culture. Skin normal fibroblastic cells are purchased from Lonza (Basel, Switzerland). Huh7- […]
(§4) from ATCC (American Type Culture Collection). […]
(§5) supplemented by 10% of FBS, 1% of penicillin-streptomycin and 2 mM glutamine.
(§6) 4.3.2. Cytotoxic assay. Chemicals were solubilized in DMSO at a concentration of 10 mM (stock solution) and diluted in culture medium to the desired final concentrations. The dose effect cytotoxic assays (IC50 determination) were performed by increasing the concentrations of each chemical (final well […]
(§7) Cells were plated in 96-well plates
(§8) (4000 cells/well). Twenty-four hours after seeding, cells were exposed to chemicals. After 48h of treatment, cells were washed in PBS and fixed in cooled 90% ethanol/5% acetic acid for 20 min and the […]
(§9) Image acquisition and analysis were performed using a Cellomics ArrayScan VTI/HCS Reader (ThermoScientific). The survival percentages were calculated as the percentage of cell number after compound treatment over cell number after DMSO treatment. The relative IC50 were calculated using the curve fitting XLfit 5.5.0.5 (idbs) integrated in Microsoft Excel as an add-on. The 4 Parameter Logistic Model or Sigmoidal Dose-Response Model describing the sigmoid-shaped response pattern was used (fit = (A+[(B-A)/(1+[(C/x)^D])]) where fit is the response and X is the tested concentration of the compound. The lower asymptote is A (also referred to as the bottom of the curve or lower plateau or the min) and the upper asymptote is B (also referred to as the top of the curve or upper plateau or the max). The slope of the linear part of the curve is described by the factor D. The parameter C is the concentration corresponding to the response midway between A and B. C is called “relative IC50” because it refers to the maximum response obtained by a […]
(§10) The results are represented as the mean ± standard error (SE) calculated from at least three independent experiments.

A short description of series [1]: In vitro cytotoxic assay, HCT-116. Particulars: human, HCT-116 cells (colon cancer cell line). The format is cell-based. On the procedure: as §1, §2, §3, §4, §5, §6, §7, §8, §9, §10
Series [2] is described as follows: In vitro cytotoxic assay, Huh7-D12. The format is cell-based. Particulars: human, Huh7-D12 cells (liver cancer cell line). As for the experimental part:
as §1, §2, §3, §4, §5, §6, §7, §8, §9, §10

A short description of series [3]: In vitro cytotoxic assay, Caco-2. Note: 0.1-25 µM tested. It counts as cell-based. Particulars: human, Caco-2 cells (colon cancer cell line). As for the experimental part: as §1, §2, §3, §4, §5, §6, §7, §8, §9, §10
The nature of series [4]: In vitro cytotoxic assay, MCF-7. Note: 0.1-25 µM tested. Conditions: human, MCF-7 cells (breast cancer cell line). It counts as cell-based. As for the experimental part:
as §1, §2, §3, §4, §5, §6, §7, §8, §9, §10

Series [5] in a line: In vitro cytotoxic assay, MDA-MB-468. Conditions: human, MDA-MB-468 cells (breast cancer cell line); read-out: In vitro cytotoxic activity IC50, MBA-MB4-68. It counts as cell-based. As for the experimental part:
as §1, §2, §3, §4, §5, §6, §7, §8, §9, §10

Series [6] is described as follows: In vitro cytotoxic assay, MDA-MB-231. Note: 0.1-25 µM tested. Conditions: human, MDA-MB-231 cells (breast cancer cell line); read-out: In vitro cytotoxic activity IC50, MBA-MB-231. The format is cell-based. On the procedure: as §1, §2, §3, §4, §5, §6, §7, §8, §9, §10
The nature of series [7]: In vitro cytotoxic assay, PC-3. Note: 0.1-25 µM tested. It counts as cell-based. Particulars: human, PC-3 cells (prostate cancer cell line). On the procedure: as §1, §2, §3, §4, §5, §6, §7, §8, §9, §10

Where only a bound is given, the exact number is not on record here.

In general, IC50 refers to the concentration that inhibits the measured activity by half. Usually melting point stands for the temperature of the solid-liquid transition. Regarding `N#Cc1nc2cc3c(=O)n(Cc4ccccc4)cnc3cc2s1` [Compound 5a, 7-Benzyl-8-oxo-7,8-dihydrothiazolo[4,5-g]quinazoline-2-carbonitrile], the melting point is 237 to 238 °C. Also, the IC50 in the series with seven tumor cell lines was in the range of 7 to 62 µM. This compound registered an IC50 at 48 h in series [1] of 7 µM. In series [2], this compound gave an IC50 at 48 h of over 25 µM. Besides, the IC50 at 48 h in [3] was determined as 10 µM. The compound also yielded an IC50 at 48 h in series [4] of 8 µM. Moreover, the IC50 at 48 h in [5] turned out to be 11 µM. The IC50 at 48 h in series [6] is over 25 µM. Half-maximal inhibition in series [7] (IC50 at 48 h) was put at 9 µM.

In turn, `N#Cc1nc2cc3ncn(Cc4ccccc4)c(=O)c3cc2s1` [Compound 5b, 7-Benzyl-8-oxo-7,8-dihydrothiazolo[5,4-g]quinazoline-2-carbonitrile] gave a melting point of 217 to 218 °C. The IC50 in the series with seven tumor cell lines lay within 1 to 3 µM. The same compound showed an IC50 at 48 h in [1] of 2 µM. Moreover, the IC50 at 48 h in series [2] was 3 µM. Half-maximal inhibition in [3] (IC50 at 48 h) was put at 1 µM. In addition, in series [4], half-maximal inhibition (IC50 at 48 h) required 2 µM. In series [5], the IC50 at 48 h stood at 1 µM. The IC50 at 48 h in series [6] was 3 µM. The same compound displayed an IC50 at 48 h in series [7] of 2 µM.

Regarding `N#Cc1nc2c(ccc3c(=O)n(Cc4ccccc4)cnc32)s1` [Compound 5c, 7-Benzyl-6-oxo-6,7-dihydrothiazolo[5,4-h]quinazoline-2-carbonitrile], the melting point lay within 273 to 274 °C. The IC50 in the series on seven tumor cell lines lay within 4 to 24 µM. In [1], this compound showed an IC50 at 48 h of 4 µM. This compound also registered an IC50 at 48 h in series [2] of 17 µM. In series [3], this compound had an IC50 at 48 h of 11 µM. Further, the IC50 at 48 h in [4] was 16 µM. In addition, the IC50 at 48 h in series [5] was 10 µM. Besides, the IC50 at 48 h in series [6] was found to be 24 µM. Further, in [7], 12 µM corresponded to half-maximal inhibition (IC50 at 48 h).

For the compound `N#Cc1nc2ccc3c(=O)n(Cc4ccccc4)cnc3c2s1` [Compound 5d, 7-Benzyl-6-oxo-6,7-dihydrothiazolo[4,5-h]quinazoline-2-carbonitrile], the IC50 in the series with seven tumor cell lines lay in the range of 7 to 18 µM. Besides, the IC50 at 48 h in [1] came out at 7 µM; in series [2], 18 µM; in series [3], 9 µM; in [4], 12 µM; in [5], 11 µM; in series [6], 14 µM. In series [7], this compound registered an IC50 at 48 h of 11 µM.

Regarding `COc1ccc(Nc2ncnc3cc4sc(C#N)nc4cc23)c(F)c1` [Compound 14a, 8-[(2-Fluoro-4-methoxyphenyl)amino]thiazolo[4,5-g]quinazoline-2-carbonitrile], the melting point was 259 to 260 °C.

`COc1ccc(Nc2ncnc3cc4nc(C#N)sc4cc23)c(F)c1` [Compound 14b, 8-[(2-Fluoro-4-methoxyphenyl)amino]thiazolo[5,4-g]quinazoline-2-carbonitrile]: the melting point lay within 255 to 256 °C.

For the compound `COc1cccc2c1C(=O)c1c(O)c3c(c(O)c1C2=O)C[C@@](O)(C(=O)CO)C[C@@H]3O[C@H]1C[C@H](N)[C@H](O)[C@H](C)O1` [Doxo, Doxorubicin, reference compound], the IC50 at 48 h in series [1] amounted to 0.05 µM; in series [2], 0.03 µM; in series [3] it was 0.03 µM; in [4], 0.05 µM; in series [5], 0.04 µM; in series [6], 0.02 µM. In [7], the IC50 at 48 h amounted to 0.08 µM.

As to `CC(=O)O[C@H]1C(=O)[C@@]2(C)[C@H]([C@H](OC(=O)c3ccccc3)[C@]3(O)C[C@H](OC(=O)[C@H](O)[C@@H](NC(=O)c4ccccc4)c4ccccc4)C(C)=C1C3(C)C)[C@]1(OC(C)=O)CO[C@@H]1C[C@@H]2O` [Taxol, reference compound], the IC50 at 48 h was found to be 0.003 µM in [1]; 0.016 µM in [2]; 0.02 µM in series [3]; 0.006 µM in [4]; 0.003 µM in series [5]; 0.01 µM in [6]. It took 0.004 µM to reach half-maximal inhibition in [7] (IC50 at 48 h).
